{"source": "patent US11020405B2", "about": "“Method for prevention or treatment of diabetic complications” (KANGWON NATIONAL UNIVERSITY UNIVERSITY-INDUSTRY COOPERATION …, priority 2017, dated 2021)", "key": {"retinas of diabetic mice": {"system": "retinas of diabetic mice", "assay": "Analysis of ROS concentration in retinas of diabetic mouse model (DHE)", "type": "in vivo, C57BL/6 mice", "settings": "intravitreal 2 μL of 2 mM midazolam, 2 μM Trolox or 500 mM NAC (FIGS. 12, 13)", "method": "6-week-old male C57BL/6 mice (DBL, EumSeong, Korea) were administered with streptozotocin (Sigma-Aldrich) dissolved in a 100 mM citrate buffer (pH 4.5) through intraperitoneal injection in an amount of 150 mg each per kg of mouse weight to give diabetic mouse models. In the diabetic mouse models, the blood glucose level was 19 mM or more when not fasting, and polyuria and diabetes, considered signs of diabetes, were observed. […]\nNormal mice (Normal), midazolam-administered normal mice (Midazolam), diabetic mice (Diabetic), midazolam-administered diabetic mice (Diabetic+Midazolam), Trolox-administered diabetic mice (Diabetic+Trolox) and NAC-administered diabetic mice (Diabetic+NAC) were subjected to cervical dislocation and the eyeballs were extracted therefrom and rapidly frozen with an OCT compound (Sakura Finetek, Torrance, Calif., USA). Using a microtome-cryostat (Leica Biosystems, Wetzlar, Germany), 10 μm-thick non-fixed cryosections were prepared, treated with a solution of 5 μM dihydroethidium (DHE, Invitrogen-Molecular Probes) in PBS, stained for 30 min, and measured using confocal microscopy. The results of ROS concentrations quantitatively analyzed using the fluorescence intensity of the cryosections are shown in FIGS. 12 and 13."}, "β-catenin": {"system": "β-catenin", "assay": "Analysis of adherens junction (β-catenin staining)", "type": "cell-based, human", "settings": "HRECs, 10 ng/mL VEGF 90 min with 20 μM midazolam, 5 μM BAPTA-AM, 1 mM NAC, 0.5 μM Trolox, 50 μM cystamine or 20 μM MDC (FIGS. 8, 9)", "method": "Purchased from Applied Cell Biology Research Institute (Cell Systems, Kirkland, Wash.), human retinal endothelial cells (HRECs) were cultured in an M19 medium, containing 20% FBS, 3 ng/mL bFGF, 5 U/mL heparin, 100 U/mL penicillin and […], in a 2% gelatin-coated plate.\nBefore the following Test Examples 2 to 7, the HRECs were cultured for 6 hr in a medium containing 1% FBS and an antibiotic agent, thus preparing HRECs of Test Example 1.\nThe HRECs of Test Example 1 were subjected to the respective treatments below and cultured for 30 min. Here, treatment with 10 ng/mL VEGF was performed for 90 min. Thereafter, the HRECs were treated with 1 mM 5-(biotinamido)pentylamine, incubated for 1 hr, fixed with 3.7% formaldehyde, treated with 0.2% triton X-100, treated with a blocking solution containing 138 mM NaCl, 0.1% Tween 20 and 2% BSA dissolved in a 20 mM Tris (pH 7.6) buffer, incubated for 30 min, incubated with a monoclonal β-catenin antibody (1:200; Santa Cruz Biotechnology) for 12 hr or more, incubated with a FITC-conjugated goat anti-mouse antibody, and measured using confocal microscopy. Some (the following i), ii), iii), iv)) of the results are shown in FIG. 8, and the β-catenin concentrations in the portions represented by the dotted lines in FIG. 8 are shown in FIG. 9. With reference to FIG. 9, 10 randomly selected cells were measured to determine the fluorescence intensity of single cells and thus quantify β-catenin.\nβ-catenin, which is a protein that mediates adherens junction like VE-cadherin, was analyzed to evaluate adherens junction."}}, "data": [{"smiles": "Cc1ncc2n1-c1ccc(Cl)cc1C(c1ccccc1F)=NC2", "note": "[midazolam]", "values": [{"measurement": "ROS concentration in retina compared to normal mice", "setting": "retinas of diabetic mice", "value": "an increase in ROS concentration was suppressed"}, {"measurement": "β-catenin concentration / adherens junction disruption due to VEGF", "setting": "β-catenin", "value": "exhibited the effect of preventing the adherens junction disruption due to VEGF"}]}]}
